Where a name gives a salt, the structure may show the parent alone.

The term melting point denotes the temperature, or range, at which the solid turns liquid. Compound `CC[C@H](NC(=O)c1c(CN2CCC3(CC2)C(=O)NCN3c2ccccc2)c(-c2ccccc2)nc2ccccc12)c1ccccc1` displayed a melting point of 242 to 245 °C.
To `CC[C@H](NC(=O)c1c(CN2CCC(n3c(=O)[nH]c4ccccc43)CC2)c(-c2ccccc2)nc2ccccc12)c1ccccc1` belongs 195 to 197 °C.
In the case of `C[C@H](NC(=O)c1c(CN2CCC(n3c(=O)[nH]c4ccccc43)CC2)c(-c2ccccc2)nc2ccccc12)C1CCCCC1` it was 204 to 206 °C; in that of `C[C@H](NC(=O)c1c(CN2CCN(C(=O)Cc3c[nH]cn3)CC2)c(-c2ccccc2)nc2ccccc12)C1CCCCC1`, 178 to 210 °C.
To `C[C@H](NC(=O)c1c(CN2CCN(Cc3ccccc3)CC2)c(-c2ccccc2)nc2ccccc12)C1CCCCC1` (as salt: HCl) belongs 176 to 179 °C; to `CC[C@H](NC(=O)c1c(CN2CCN(C3CCCCC3)CC2)c(-c2ccccc2)nc2ccccc12)c1ccccc1` (as salt: HCl) [Example 1, 3-(4-Cyclohexyl-piperazin-1-ylmethyl)-2-phenyl-quinoline-4-carboxylic acid ((S)-1-phenyl-propyl)-amide], 261 to 263 °C.
`C[C@H](NC(=O)c1c(CN2CCN(CCc3ccccc3)CC2)c(-c2ccccc2)nc2ccccc12)C1CCCCC1` (as salt: HCl) [Example 5, 3-(4-Phenethyl-piperazin-1-ylmethyl)-2-phenyl-quinoline-4-carboxylic acid ((S)-1-cyclohexyl-ethyl)-amide] yielded a melting point of 168 to 171 °C.
`CC[C@H](NC(=O)c1c(CN2CCC(N3CCCCC3)CC2)c(-c2ccccc2)nc2ccccc12)c1ccccc1` (as salt: HCl) [Example 14, 3-[1,4′]Bipiperidinyl-1′-ylmethyl-2-phenyl-quinoline-4-carboxylic acid ((S)-1-phenyl-propyl)-amide] came in with a melting point of 182 to 185 °C.
To `C[C@H](NC(=O)c1c(CN2CCC(N3CCCCC3)CC2)c(-c2ccccc2)nc2ccccc12)c1ccccc1` (as salt: HCl) [Example 30, 3-[1,4′]Bipiperidinyl-1′-ylmethyl-2-phenyl-quinoline-4-carboxylic acid ((S)-1-phenyl-ethyl)-amide] belongs 208 to 210 °C; to `CCN1CCN(Cc2c(-c3ccccc3)nc3ccccc3c2C(=O)N[C@@H](C)C2CCCCC2)CC1` (as salt: HCl) [Example 37, 3-(4-Ethyl-piperazin-1-ylmethyl)-2-phenyl-quinoline-4-carboxylic acid ((S)-1-cyclohexyl-ethyl)-amide], 188 to 190 °C.
In the case of `CC[C@H](NC(=O)c1c(CN2CCN3CCCC3C2)c(-c2ccccc2)nc2ccccc12)c1ccccc1` (stereo partly drawn) (as salt: HCl) [Example 49, 3-(Hexahydro-pyrrolo[1,2-a]pyrazin-2-ylmethyl)-2-phenyl-quinoline-4-carboxylic acid ((S)-1-phenyl-propyl)-amide] it was 196 to 198 °C; in that of `CC(C)N1CCN(Cc2c(-c3ccccc3)nc3ccccc3c2C(=O)N[C@@H](C)C2CCCCC2)CC1` (as salt: hydrochloride) [Example 4, 3-(4-Isopropyl-piperazin-1-ylmethyl)-2-phenyl-quinoline-4-carboxylic acid ((S)-1-cyclohexyl-ethyl)-amide], 180 to 183 °C; in that of `C[C@H](NC(=O)c1c(CN2CCC(N3CCCCC3)CC2)c(-c2ccccc2)nc2ccccc12)C1CCCCC1` (as salt: hydrochloride) [Example 13, 3-[1,4′]Bipiperidinyl-1′-ylmethyl-2-phenyl-quinoline-4-carboxylic acid ((S)-1-cyclohexyl-ethyl)-amide], 180 to 184 °C.
`CC[C@H](NC(=O)c1c(CN2CCC(N3CCCCC3)CC2)c(-c2ccccc2)nc2cc(OC)ccc12)c1ccccc1` (as salt: hydrochloride) [Example 67, 3-[1,4′]Bipiperidinyl-1′-ylmethyl-7-methoxy-2-phenyl-quinoline-4-carboxylic acid ((S)-1-phenyl-propyl)-amide] yielded a melting point of 208 to 210 °C.
In the case of `CC[C@H](NC(=O)c1c(CN2CCC(c3ccccc3)CC2)c(-c2ccccc2)nc2ccccc12)c1ccccc1` [Example 2, 2-Phenyl-3-(4-phenyl-piperidin-1-ylmethyl)-quinoline-4-carboxylic acid ((S)-1-phenyl-propyl)-amide] it was 90 to 95 °C; in that of `CC[C@H](NC(=O)c1c(C(c2ccccc2)(N2CCCCC2)N(C)C(C)=O)c(-c2ccccc2)nc2ccccc12)c1ccccc1` (stereo partly drawn) [Example 11, 3-[(Acetyl-methyl-amino)-phenyl-piperidin-1-ylmethyl]-2-phenyl-quinoline-4-carboxylic acid ((S)-1-phenyl-propyl)-amide], 100 °C (dec.).
In the case of `CC[C@H](NC(=O)c1c(CN2CCN(CCOCCO)CC2)c(-c2ccccc2)nc2ccccc12)c1ccccc1` [Example 15, 3-{4-[2-(2-Hydroxy-ethoxy)-ethyl]-piperazin-1-ylmethyl}-2-phenyl-quinoline-4-carboxylic acid ((S)-1-phenyl-propyl)-amide] it was 158 to 160 °C.
As for `COCCN1CCN(Cc2c(-c3ccccc3)nc3ccccc3c2C(=O)N[C@@H](C)C2CCCCC2)CC1` [Example 17, 3-[4-(2-Methoxy-ethyl)-piperazin-1-ylmethyl]-2-phenyl-quinoline-4-carboxylic acid ((S)-1-cyclohexyl-ethyl)-amide], the melting point was 113 to 115 °C.
To `CC[C@H](NC(=O)c1c(CN2CCC(N3CCC(O)CC3)CC2)c(-c2ccccc2)nc2ccccc12)c1ccccc1` [Example 18, 3-(4-Hydroxy-[1,4′]bipiperidinyl-1′-ylmethyl)-2-phenyl-quinoline-4-carboxylic acid ((S)-1-phenyl-propyl)-amide] belongs 166 to 168 °C.
In the case of `CC[C@H](NC(=O)c1c(CN2CCC(N3CCOCC3)CC2)c(-c2ccccc2)nc2ccccc12)c1ccccc1` [Example 19, 3-(4-Morpholin-4-yl-piperidin-1-ylmethyl)-2-phenyl-quinoline-4-carboxylic acid ((S)-1-phenyl-propyl)-amide] it was 157 to 165 °C.
To `C[C@H](NC(=O)c1c(CN2CCN(CCOCCO)CC2)c(-c2ccccc2)nc2ccccc12)C1CCCCC1` [Example 20, 3-{4-[2-(2-Hydroxy-ethoxy)-ethyl]-piperazin-1-ylmethyl}-2-phenyl-quinoline-4-carboxylic acid ((S)-1-cyclohexyl-ethyl)-amide] belongs 126 to 128 °C.
As for `CC[C@H](NC(=O)c1c(CN2CCN(C(C)=O)CC2)c(-c2ccccc2)nc2ccccc12)c1ccccc1` [Example 23, 3-(4-Acetyl-piperazin-1-ylmethyl)-2-phenyl-quinoline-4-carboxylic acid ((S)-1-phenyl-propyl)-amide], the melting point lay in the range of 117 to 119 °C.
To `C[C@H](NC(=O)c1c(CN2CCN(C(=O)c3ccccc3)CC2)c(-c2ccccc2)nc2ccccc12)C1CCCCC1` [Example 24, 2-Phenyl-3-[4-(1-phenyl-methanoyl)-piperazin-1-ylmethyl]-quinoline-4-carboxylic acid ((S)-1-cyclohexyl-ethyl)-amide] belongs 150 to 152 °C.
On to `CC(C)C(=O)N1CCN(Cc2c(-c3ccccc3)nc3ccccc3c2C(=O)N[C@@H](C)C2CCCCC2)CC1` [Example 25, 3-[4-(2-Methyl-propanoyl)-piperazin-1-ylmethyl]-2-phenyl-quinoline-4-carboxylic acid ((S)-1-cyclohexyl-ethyl)-amide], for which the melting point lay in the range of 149 to 151 °C.
In turn, `CC[C@H](NC(=O)c1c(CN2CCN(CCO)CC2)c(-c2ccccc2)nc2ccccc12)c1ccccc1` [Example 28, 3-[4-(2-Hydroxy-ethyl)-piperazin-1-ylmethyl]-2-phenyl-quinoline-4-carboxylic acid ((S)-1-phenyl-propyl)-amide] had a melting point of 142 to 144 °C.
In the case of `C[C@H](NC(=O)c1c(CN2CCN(CCO)CC2)c(-c2ccccc2)nc2ccccc12)C1CCCCC1` [Example 29, 3-[4-(2-Hydroxy-ethyl)-piperazin-1-ylmethyl]-2-phenyl-quinoline-4-carboxylic acid ((S)-1-cyclohexyl-ethyl)-amide] it was 95 to 105 °C.
`CC[C@H](NC(=O)c1c(CN2CCN(C(=O)c3ccccc3)CC2)c(-c2ccccc2)nc2ccccc12)c1ccccc1` [Example 31, 2-Phenyl-3-[4-(1-phenyl-methanoyl)-piperazin-1-ylmethyl]-quinoline-4-carboxylic acid ((S)-1-phenyl-propyl)-amide] returned a melting point of 180 to 182 °C.
To `C[C@H](NC(=O)c1c(CN2CCC(C(N)=O)CC2)c(-c2ccccc2)nc2ccccc12)C1CCCCC1` [Example 36, 3-(4-Carbamoyl-piperidin-1-ylmethyl)-2-phenyl-quinoline-4-carboxylic acid ((S)-1-cyclohexyl-ethyl)-amide] belongs 219 to 221 °C; to `C[C@H](NC(=O)c1c(CN2CCC(N3CCOCC3)CC2)c(-c2ccccc2)nc2ccccc12)C1CCCCC1` [Example 42, 3-(4-Morpholin-4-yl-piperidin-1-ylmethyl)-2-phenyl-quinoline-4-carboxylic acid ((S)-1-cyclohexyl-ethyl)-amide], 135 to 137 °C.
For the compound `C[C@H](NC(=O)c1c(CN2CCC(N3CCC(O)CC3)CC2)c(-c2ccccc2)nc2ccccc12)C1CCCCC1` [Example 43, 3-(4-Hydroxy-[1,4′]bipiperidinyl-1′-ylmethyl)-2-phenyl-quinoline-4-carboxylic acid ((S)-1-cyclohexyl-ethyl)-amide], the melting point is 150 to 160 °C.
The compound `C[C@H](NC(=O)c1c(CN2CCN(C(=O)CN(C)C)CC2)c(-c2ccccc2)nc2ccccc12)C1CCCCC1` [Example 46, 3-[4-(2-Dimethylamino-ethanoyl)-piperazin-1-ylmethyl]-2-phenyl-quinoline-4-carboxylic acid ((S)-1-cyclohexyl-ethyl)-amide] had a melting point of 173 to 175 °C.
In the case of `CCN(CC)CCC(=O)N1CCN(Cc2c(-c3ccccc3)nc3ccccc3c2C(=O)N[C@@H](C)C2CCCCC2)CC1` [Example 47, 3-[4-(3-Diethylamino-propanoyl)-piperazin-1-ylmethyl]-2-phenyl-quinoline-4-carboxylic acid ((S)-1-cyclohexyl-ethyl)-amide] it was 104 to 106 °C.

The values above are taken from patent US6780875B2, “Quinoline-4-carboxamide derivatives as NK-3 and NK-2 receptor antagonists” (SmithKline Beecham S.p.A., priority 1998, dated 2004).
